Paper PMC10586451, “Design, Synthesis, Pharmacological Activities, Structure–Activity Relationship, and In Silico Studies of Novel 5-Substituted-2-(morpholinoimino)-thiazolidin-4-ones” (ACS Omega, 2023)

What was measured:
[1] = β-carotene-linoleic acid assay (antioxidant); conditions: mean ± SEM of three parallel measurements
Experimental: (§1) DMSO solutions of four different concentrations (12.5, 25, 50, and 100 μM) of the synthesized compound 1–26 were prepared. DMSO was used as a control, while BHA and α-TOC were used as antioxidant standards.

[2] = DPPH radical scavenging assay; conditions: mean ± SEM of three parallel measurements
Experimental: as §1

[3] = ABTS cation radical scavenging assay; conditions: mean ± SEM of three parallel measurements
Experimental: as §1

[4] = CUPRAC assay (Cu(II) reducing power); conditions: concentration at 0.500 absorbance; mean ± SEM
Experimental: as §1

[5] = target: T1, Acetylcholinesterase (AChE) (Electrophorus electricus, UniProt O42275); assay: biochemical; conditions: for SI for AChE: Selectivity index: IC50 for BChE/IC50 for AChE; for IC50: mean ± SEM of three parallel measurements
T1 construct: Acetylcholinesterase (AChE) from electric eel; from tissue; host or cells: electric eel
T1 sequence (O42275 24-633): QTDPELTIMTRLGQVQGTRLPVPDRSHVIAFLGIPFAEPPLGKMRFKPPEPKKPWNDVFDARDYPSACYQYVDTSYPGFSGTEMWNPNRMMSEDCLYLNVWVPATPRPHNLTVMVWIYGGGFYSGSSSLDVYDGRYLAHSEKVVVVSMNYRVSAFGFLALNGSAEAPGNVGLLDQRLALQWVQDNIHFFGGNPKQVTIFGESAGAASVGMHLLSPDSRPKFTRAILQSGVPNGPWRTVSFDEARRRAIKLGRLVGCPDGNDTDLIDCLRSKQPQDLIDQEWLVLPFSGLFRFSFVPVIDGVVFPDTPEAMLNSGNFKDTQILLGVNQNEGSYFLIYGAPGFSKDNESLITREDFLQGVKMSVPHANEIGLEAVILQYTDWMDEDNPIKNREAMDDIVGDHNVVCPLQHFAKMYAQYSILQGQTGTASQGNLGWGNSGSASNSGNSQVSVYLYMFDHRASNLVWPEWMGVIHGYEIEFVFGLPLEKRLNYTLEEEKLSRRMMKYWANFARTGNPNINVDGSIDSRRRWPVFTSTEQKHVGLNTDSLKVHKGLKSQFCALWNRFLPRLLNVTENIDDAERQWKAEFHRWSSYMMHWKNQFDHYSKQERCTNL
Experimental: (§2) Anticholinesterase activity of all was performed according to the Ellman’s method using a 96-well microplate reader. Acetylcholinesterase (AChE) from electric eel and butyrylcholinesterase (BChE) from horse serum were used. Acetylthiocholine iodide and butyrylthiocholine chloride were utilized as substrates. DTNB (5,50-dithiobis(2-nitrobenzoic) acid was used as a coloring agent to measure the anticholinesterase activity.[43] Measurements were obtained in triplicate.

[6] = target: T2, butyrylcholinesterase (BChE) (Equus caballus, UniProt P81908); assay: biochemical; conditions: for SI for BChE: Selectivity index: IC50 for AChE/IC50 for BChE; for IC50: mean ± SEM of three parallel measurements
T2 construct: butyrylcholinesterase (BChE) from horse serum; from tissue; host or cells: horse serum
T2 sequence (P81908 whole entry): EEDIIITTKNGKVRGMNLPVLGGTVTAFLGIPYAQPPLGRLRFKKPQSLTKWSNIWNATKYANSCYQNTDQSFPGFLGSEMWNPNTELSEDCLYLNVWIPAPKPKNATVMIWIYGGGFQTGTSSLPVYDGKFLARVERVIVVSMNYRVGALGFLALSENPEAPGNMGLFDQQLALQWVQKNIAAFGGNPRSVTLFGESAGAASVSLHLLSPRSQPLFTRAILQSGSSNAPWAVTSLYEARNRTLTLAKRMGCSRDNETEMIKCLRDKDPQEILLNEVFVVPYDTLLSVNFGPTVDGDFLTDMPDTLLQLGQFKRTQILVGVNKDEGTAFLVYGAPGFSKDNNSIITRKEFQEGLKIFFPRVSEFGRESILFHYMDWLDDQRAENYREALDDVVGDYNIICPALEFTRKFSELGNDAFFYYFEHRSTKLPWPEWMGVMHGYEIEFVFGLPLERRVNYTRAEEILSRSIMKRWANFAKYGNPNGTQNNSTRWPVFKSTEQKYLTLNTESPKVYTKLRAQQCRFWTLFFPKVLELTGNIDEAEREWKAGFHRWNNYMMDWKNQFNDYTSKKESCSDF
Experimental: as §2

tyrosinase = type: biochemical; conditions: mean ± SEM of three parallel measurements
urease = urease (Canavalia ensiformis, UniProt P07374); assay: biochemical; conditions: urease activity IC50, mean ± SEM of three parallel measurements
urease, sequence (P07374 whole entry, looked up): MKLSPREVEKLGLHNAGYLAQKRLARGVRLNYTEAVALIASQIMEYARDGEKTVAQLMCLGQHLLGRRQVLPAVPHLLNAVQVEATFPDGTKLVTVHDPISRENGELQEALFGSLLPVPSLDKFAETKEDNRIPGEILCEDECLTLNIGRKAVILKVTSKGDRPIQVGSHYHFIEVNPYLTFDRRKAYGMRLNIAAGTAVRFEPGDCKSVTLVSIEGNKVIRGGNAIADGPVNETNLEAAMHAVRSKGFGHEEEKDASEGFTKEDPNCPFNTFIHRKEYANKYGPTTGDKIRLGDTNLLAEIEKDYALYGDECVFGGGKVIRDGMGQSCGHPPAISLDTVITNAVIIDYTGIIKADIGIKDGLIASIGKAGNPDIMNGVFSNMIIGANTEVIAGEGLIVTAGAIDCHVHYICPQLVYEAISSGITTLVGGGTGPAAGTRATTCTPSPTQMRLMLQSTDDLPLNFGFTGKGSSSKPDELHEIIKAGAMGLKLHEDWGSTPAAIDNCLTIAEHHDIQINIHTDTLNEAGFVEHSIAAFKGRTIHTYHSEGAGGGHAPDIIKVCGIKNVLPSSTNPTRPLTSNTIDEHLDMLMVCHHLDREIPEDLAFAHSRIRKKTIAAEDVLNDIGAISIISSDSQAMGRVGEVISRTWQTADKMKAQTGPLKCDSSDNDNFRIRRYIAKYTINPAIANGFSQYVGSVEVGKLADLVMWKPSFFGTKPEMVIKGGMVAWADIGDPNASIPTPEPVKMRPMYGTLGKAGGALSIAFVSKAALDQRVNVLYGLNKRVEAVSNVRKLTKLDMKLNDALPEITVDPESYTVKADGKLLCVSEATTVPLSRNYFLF

Row | Structure (SMILES) | IC50 [1] | IC50 [2] | IC50 [3] | CUPRAC assay A0.5 [4] | SI for AChE [5] | IC50 [5] | SI for BChE [6] | IC50 [6] | IC50 (tyrosinase) | IC50 (urease)
1 | O=C1C(=Cc2ccccc2)SC(=NN2CCOCC2)N1c1ccccc1 [Compound 3, 5-(Benzylidene)-2-(morpholinoimino)-3-phenylthiazolidine-4-one] | 39.8 ± 0.67 µM | 52.13 ± 0.29 µM | 31.59 ± 0.04 µM | 35.89 ± 0.01 µM | 1.42 | 34.2 ± 0.63 µM | 0.70 | 48.72 ± 0.18 µM | 29400 ± 490 µM | 56.8 ± 0.15 µM
2 | O=C1C(=Cc2cccnc2)SC(=NN2CCOCC2)N1c1ccccc1 [Compound 22, 2-(Morpholinoimino)-3-phenyl-5-(pyridin-3-ylmethylene)thiazolidin-4-one] | 31.6 ± 0.79 µM | 34.77 ± 0.22 µM | 30.11 ± 0.28 µM | 30.42 ± 0.01 µM | 1.33 | 24.8 ± 0.3 µM | 0.75 | 33 ± 0.84 µM | 9130 ± 550 µM | 26.2 ± 0.47 µM
3 | CN(C)c1ccc(C=C2SC(=NN3CCOCC3)N(c3ccccc3)C2=O)cc1 [Compound 10] | 34.23 ± 0.2 µM | 37.43 ± 0.29 µM | 30.1 ± 0.69 µM | 28.65 ± 0.00 µM | 1.42 | 26.48 ± 0.25 µM | 0.71 | 37.53 ± 0.2 µM | 25000 ± 670 µM | 49.3 ± 0.55 µM
4 | O=C1C(=Cc2ccccn2)SC(=NN2CCOCC2)N1c1ccccc1 [Compound 21, 2-(Morpholinoimino)-3-phenyl-5-(pyridin-2-ylmethylene)thiazolidin-4-one] | 31.5 ± 0.48 µM | 35.01 ± 0.01 µM | 30.7 ± 0.56 µM | 30.77 ± 0.00 µM | 1.36 | 20.6 ± 1.02 µM | 0.73 | 28.1 ± 0.55 µM | 11200 ± 390 µM | 27.8 ± 0.51 µM
5 | O=C1C(=Cc2ccco2)SC(=NN2CCOCC2)N1c1ccccc1 [Compound 15, 5-(Furan-2-ylmethylene)-2-(morpholinoimino)-3-phenylthiazolidin-4-one] | 29.7 ± 0.34 µM | 35.05 ± 0.29 µM | 32.2 ± 0.87 µM | 31.24 ± 0.00 µM | 1.37 | 27.4 ± 0.76 µM | 0.73 | 37.6 ± 0.61 µM | 5190 ± 30 µM | 46.4 ± 1.08 µM
6 | O=C1C(=Cc2ccncc2)SC(=NN2CCOCC2)N1c1ccccc1 [Compound 23, 2-(Morpholinoimino)-3-phenyl-5-(pyridin-4-ylmethylene)thiazolidin-4-one] | 34.6 ± 0.5 µM | 36.14 ± 0.16 µM | 32.72 ± 0.19 µM | 31.12 ± 0.00 µM | 1.29 | 19.7 ± 0.54 µM | 0.78 | 25.4 ± 0.26 µM | 8050 ± 110 µM | 25 ± 0.54 µM
7 | O=C1C(=Cc2ccc3ccccc3n2)SC(=NN2CCOCC2)N1c1ccccc1 [Compound 26, 2-(Morpholinoimino)-3-phenyl-5-(quinolin-2-ylmethylene)thiazolidin-4-one] | 22.4 ± 0.3 µM | 29.7 ± 0.9 µM | 26.5 ± 0.63 µM | 25.91 ± 0.02 µM | 1.30 | 19.8 ± 0.37 µM | 0.77 | 25.7 ± 0.53 µM | 8760 ± 900 µM | 21.5 ± 0.44 µM
8 | O=C1C(=Cc2ccc(N3CCOCC3)cc2)SC(=NN2CCOCC2)N1c1ccccc1 [Compound 14, 2-(Morfolinoimino)-3-phenyl-5-(4-(morpholin-1-yl)benzylidene)thiazolidine-4-one] | 26.31 ± 0.03 µM | 33.86 ± 0.11 µM | 30.3 ± 0.36 µM | 27.43 ± 0.00 µM | 1.34 | 19.2 ± 0.61 µM | 0.75 | 25.7 ± 1.05 µM | 8100 ± 220 µM | 26.7 ± 0.52 µM
